pEC50, pIC50: −log10 of the molar value. Like-named read-outs stand apart in the source and are kept apart here.
Legend:
[1] = system: p21 induction in HCT 116 cells; test: p21 induction in cells (In-Cell Western, p21/GAPDH ratio); assay type: cell-based; details: 24 h compound incubation, read-out: P21_EC50
Experimental: Example 3: Method for Determining Effect on p21 Induction in Cells
The colon carcinoma cell line HCT 116 was obtained from ATCC and cultured in growth medium consisting of Mccoy's 5A Medium (Gibco 16600108) supplemented with 10% FBS (Transgene FS201-02) and 100 units/mL penicillin-streptomycin (Gibco 15140122) and maintained at 37° C. under 5% CO2. On the day of seeding, 2,000 cells in 30 μL of culture media were plated per well to Poly-D-Lysine 384 Well Black Clear Plates (Biocoat 356663) and incubated overnight at 37° C. under 5% CO2. The following day, compounds were serially diluted in DMSO for a total of 11 test concentrations. The typical starting concentration of compounds was 10 μM with 2-fold dilutions. Next, 150 nL of diluted compound was added in duplicate to the assay plate, using an Echo 655 (Labcyte). The plate was centrifuged at 500 RPM for 1 min and then incubated at 37° C. under 5% CO2 for 24 h. After 24h, medium was removed, and cells were fixed by adding 40 μL of 4% paraformaldehyde solution to each well and incubated for 20 min at room temperature. The plate was then washed 4 times with 100 μL per well of wash buffer (PBS with 0.1% Tween-20) using a microplate washer. Next, 30 μL of ice-cold methanol was added to each well and the plate was incubated at −20° C. for 10 min. The plate was washed 4 times with 100 μL per well of wash buffer by a microplate washer, then 30 μL per well of blocking buffer (Intercept PBS blocking buffer (LI-COR 927-70001) with 0.05% Tween-20) was added and the plate was incubated at room temperature with shaking for 2h. Next, to each test well, 20 μL of primary antibody solution (p21 Waf1/CIP (12D1) RabbitmAb (Cell Signaling Technologies 2947) diluted 1:1000 and GAPDH (D4C6R) Mouse mAb (Cell Signaling Technologies 97166) diluted 1:2000 in blocking buffer) was added and the plate was placed at 4° C., overnight. The following day, the plate was washed 5 times with 100 μL per well of wash buffer using a microplate washer for 5 min. 20 μL per well of secondary antibody (IRDye 680CW Goat anti-Mouse IgG (H+L) (LI-COR 926-68070) diluted 1: 2000 in Blocking Buffer and IRDye 800CW Goat anti-Rabbit IgG (H+L) (LI-COR 926-32211) diluted 1: 2000 in Blocking Buffer) was then added and the plate was stored for 2h in the dark at room temperature with shaking. The plate was then washed 4 times with 100 μL per well of wash buffer again using a microplate washer. Finally, the p21 signal and the GAPDH signal were quantified using a LI-COR Odyssey CLx Imager machine reading at 800 nm and 700 nm, respectively. Each plate contained DMSO control (low control) and an internal reference WRN inhibitor (high control) respectively. For quantitation, the 800 nm/700 nm ratio was calculated for each well to give fold p21 induction and then percent activation for each compound well was calculated as follows (100×(ratio cpd well−ratio low control)/(ratio high control−ratio low control)). EC50 values for each compound were generated after non-linear regression curve fitting using commercially available software.

[2] = target: T1, human Werner helicase (WRN, Uniprot Q14191, amino acids 517-1235 with L1074F point mutation; WRN-BV08) (Homo sapiens, UniProt Q14191, L1074F); test: WRN (BV08) ADP-Glo assay; assay type: biochemical; details: WRN-BV08 (aa 517-1235, L1074F); read-out: ADP-Glo_hWRN_IC50
T1 construct: Uniprot Q14191, amino acids 517-1235 with L1074F point mutation; 8xHis (C, cleaved yes); TEV cleavage site (ENLYFQG) (C, cleaved yes); made in house; host or cells: Sf9 insect cells (baculovirus, pFastBac)
From the text: Example 2: WRN (BV08) ADP-Glo Assay Protocol
Bovine skin gelatin (BSG), dimethyl sulfoxide (DMSO), Pluronic F-127 and tris(2-carboxyethyl)phosphine hydrochloride solution (TCEP) were purchased from Sigma-Aldrich (St. Louis, MO) at the highest level of purity possible. Bicine buffer solution was purchased from Alfa Aesar (Tewksbury, MA) and compound NSC-617145 was purchased from Tocris (Minneapolis, MN). DNA duplex was synthesized at BGI (Shenzhen, China) and was composed of strand 1 with the sequence 5′-[…]-3′ (SEQ ID NO.: 1) and strand 2 with the sequence 5′-[…]-3′ (SEQ ID NO.: 2). DNA strands were annealed by heating to 95° C. for 5 minutes followed by slow cooling to room temperature. Compounds in 100% DMSO ([…]) were spotted into a 384-well white polystyrene Optiplate-384 (Perkin Elmer; Waltham, MA) assay plate using a LabCyte Echo 550 (Agilent; Santa Clara, CA). DMSO ([…]) was added to columns 12, rows A-H and column 24, rows I-P for the maximum signal control. Compound NSC-617145 ([…]) was added to columns 12, rows I-P and 24, rows A-H for the minimum signal control (100% inhibition). Compounds/DMSO were preincubated for 15 minutes at 25° C. with […] 2×WRN (BV08), prepared as described below, in assay buffer containing 20 mM Bicine (pH=7.5), 1 mM MgCl2, 10 mM KCl, 0.1% Pluronic F-127, 0.005% BSG, 1 mM TCEP. The reaction was initiated by the addition of […] 2× substrate mixture in assay buffer and incubated for 60 minutes at 25° C. The final concentrations of the assay components were 0.15 nM WRN, […], and 0.1 nM DNA duplex. The final DMSO concentration was 1% and the reference compound concentration (NSC-617145) used for the minimal signal control was […]. The reaction was stopped by the addition of the ADP-Glo Kit components (Promega; Madison, WI) as directed and the relative luminescence units (RLU) were read on an Envision 2104 (Perkin Elmer; Waltham, MA).
% Inhibition Calculation:
Where RLU=relative luminescence units, sample=signal in sample well, and MIN and MAX are the respective minimum and maximum signal controls.
Four-Parameter IC50 Fit Equation:
Where top and bottom are normally allowed to float but may be fixed at 100 or 0 respectively in a 3-parameter fit. Y is the % inhibition and X is the compound concentration.
Molecular Biology and virus production. The DNA encoding human Werner helicase (Uniprot Q14191, amino acids 517-1235 with L1074F point mutation) was generated with codon-optimization for […] expression and subcloned into the pFastBac vector with a TEV cleavable 8×His tag (SEQ ID NO: 5) (WRN—BV08). The baculovirus from the expression plasmid WRN—BV08 was generated from transfection and amplification following the manufacturer's instructions.
Sf9 cells grown in SF900II media were infected with 1:200 WRN—BV08 P2 virus and incubated for protein expression for 72 h at 27° C. The WRN protein was purified using the following protocol. The cell pellets were thawed and resuspended in buffer A (50 mM Tris, pH 7.5, 500 mM NaCl, 1 mM TCEP, 10% Glycerol) supplemented with 0.5% CHAPS, 1 mM PMSF, 1 μg/ml Leupeptin, 1 μg/ml Pepstatin, and the Pierce Universal Nuclease and cocktail tablet. Cleared lysates were loaded onto a Ni Sepharose™ excel column and washed with buffer A and bound protein was eluted with buffer A supplemented with 300 mM imidazole. The eluted protein was dialyzed against buffer A and digested by His-tagged TEV (1:5 ratio) overnight at 4° C. ZnCl2 was added into the sample at final 15 μM before loading onto a second Ni Sepharose™ excel column. Untagged WRN protein was eluted from the column with buffer A supplemented with 20 mM imidazole, dialyzed overnight into buffer B (50 mM Tris, pH 7.5, 1 mM TCEP, 10% Glycerol) supplemented with 150 mM NaCl and loaded onto a Heparin column. Proteins were eluted with a step gradient of buffer B supplemented with 150 mM, 200 mM, 300 mM and 500 mM NaCl. […]

T1 sequence (Q14191 with tags, fused parts or gaps L1074F): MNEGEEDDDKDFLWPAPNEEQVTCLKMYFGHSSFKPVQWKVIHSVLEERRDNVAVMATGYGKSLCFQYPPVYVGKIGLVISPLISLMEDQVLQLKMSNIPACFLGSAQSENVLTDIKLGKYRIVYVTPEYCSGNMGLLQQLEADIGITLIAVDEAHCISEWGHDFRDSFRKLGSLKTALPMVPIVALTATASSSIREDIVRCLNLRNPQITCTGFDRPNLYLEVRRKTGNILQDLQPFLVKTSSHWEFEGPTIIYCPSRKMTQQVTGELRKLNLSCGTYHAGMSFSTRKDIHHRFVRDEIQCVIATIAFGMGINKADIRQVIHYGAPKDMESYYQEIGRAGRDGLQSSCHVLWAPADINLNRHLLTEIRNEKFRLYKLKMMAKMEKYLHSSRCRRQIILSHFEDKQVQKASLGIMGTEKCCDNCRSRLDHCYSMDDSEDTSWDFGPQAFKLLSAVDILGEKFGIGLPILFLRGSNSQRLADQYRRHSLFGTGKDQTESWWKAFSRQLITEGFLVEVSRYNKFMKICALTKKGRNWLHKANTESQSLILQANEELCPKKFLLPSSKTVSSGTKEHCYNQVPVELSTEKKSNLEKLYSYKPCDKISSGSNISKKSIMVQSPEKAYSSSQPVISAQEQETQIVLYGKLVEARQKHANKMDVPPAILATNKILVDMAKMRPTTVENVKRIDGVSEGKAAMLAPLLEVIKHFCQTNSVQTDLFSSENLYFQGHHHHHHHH

## CCc1c(N2CCN(C(=O)c3cnn(C)c3)CC2)c(=O)n2nc(-c3ccnc(OC)c3)nc2n1CC(=O)N[C@@H]1C[C@H]1c1c(F)cccc1F (racemic) [I-244, rac-N-((1R,2S)-2-(2,6-difluorophenyl)cyclopropyl)-2-(5-ethyl-2-(2-methoxypyridin-4-yl)-6-(4-(1-methyl-1H-pyrazole-4-carbonyl)piperazin-1-yl)-7-oxo-[1,2,4]triazolo[1,5-a]pyrimidin-4(7H)-yl)acetamide]
[1]; Homo sapiens, HCT-116, 24 h
  pEC50: < 5.30
[2]
  pIC50: 6.30 to 7.00

## CCc1c(N2CCN(C(=O)c3ncnc(C)c3O)[C@H]3CC[C@@H]32)c(=O)c2nc(N(C)C)cnc2n1CC(=O)NC12CC(C(F)(F)F)(C1)C2 (relative stereo) [I-2, rel-2-(2-(dimethylamino)-6-ethyl-7-((1S,6S)-5-(5-hydroxy-6-methylpyrimidine-4-carbonyl)-2,5-diazabicyclo[4.2.0]octan-2-yl)-8-oxopyrido[2,3-b]pyrazin-5(8H)-yl)-N-(3-(trifluoromethyl)bicyclo[1.1.1]pentan-1-yl)acetamide]
[1]; Homo sapiens, HCT-116, 24 h
  pEC50: < 5.30
[2]
  pIC50: 6.30 to 7.00

## CCc1c([C@@]23CCN(C(=O)c4ncnc(C)c4O)C[C@@H]2C3)c(=O)c2nn(-c3ccnc(OC)c3)nc2n1CC(=O)NC12CC(C(C)C)(C1)C2 (relative stereo) [I-63, rel-2-{5-ethyl-6-[(1R,6S)-3-(5-hydroxy-6-methylpyrimidine-4-carbonyl)-3-azabicyclo[4.1.0]heptan-6-yl]-2-(2-methoxypyridin-4-yl)-7-oxo-2H,4H,7H-[1,2,3]triazolo[4,5-b]pyridin-4-yl}-N-[3-(propan-2-yl)bicyclo[1.1.1]pentan-1-yl]acetamide]
[1]; Homo sapiens, HCT-116, 24 h
  pEC50: 5.70 to 6.30
[2]
  pIC50: 7.30 to 8.30

## CCc1c(N2CCN(C(=O)c3ncnc(C)c3O)[C@H]3CCC[C@H]32)c(=O)c2nn(-c3ccnc(OC)c3)nc2n1CC(=O)NC12CC(C(C)C)(C1)C2 (relative stereo) [I-93, rel-2-{6-[(4aR,7aS)-4-(5-hydroxy-6-methylpyrimidine-4-carbonyl)-octahydro-1H-cyclopenta[b]pyrazin-1-yl]-5-ethyl-2-(2-methoxypyridin-4-yl)-7-oxo-2H,4H,7H-[1,2,3]triazolo[4,5-b]pyridin-4-yl}-N-[3-(propan-2-yl)bicyclo[1.1.1]pentan-1-yl]acetamide]
[1]; Homo sapiens, HCT-116, 24 h
  pEC50: 5.70 to 6.30
[2]
  pIC50: 7.30 to 8.30

## CCc1c(N2CCN(C(=O)c3c(OC)ncc(C4CCOC4)c3O)CC2)c(=O)c2nn(-c3ccnc(OC)c3)nc2n1CC(=O)NC12CC(C(C)C)(C1)C2 (single isomer, unassigned) [I-64]
[1]; Homo sapiens, HCT-116, 24 h
  pEC50: 5.70 to 6.30
[2]
  pIC50: 7.30 to 8.30

## CCc1c(N2CCN(C(=O)c3c(OC)ncc(C4CCOC4)c3O)CC2)c(=O)c2nn(-c3ccnc(OC)c3)nc2n1CC(=O)NC12CC(C(C)C)(C1)C2 (single isomer, unassigned) [I-65]
[1]
  pEC50: ≥ 6.30
[2]
  pIC50: 7.30 to 8.30

## CCc1c(C2=CCN(C(=O)c3ncnc(C)c3O)CC2C)c(=O)c2nn(-c3ccnc(OC)c3)nc2n1CC(=O)NC12CC(C(C)C)(C1)C2 (single isomer, unassigned) [I-97]
[1]; Homo sapiens, HCT-116, 24 h
  pEC50: ≥ 6.30
[2]
  pIC50: 7.30 to 8.30

## CCc1c(C2=CCN(C(=O)c3ncnc(C)c3O)CC2C)c(=O)c2nn(-c3ccnc(OC)c3)nc2n1CC(=O)NC12CC(C(C)C)(C1)C2 (single isomer, unassigned) [I-98]
[1]
  pEC50: 5.70 to 6.30
[2]
  pIC50: 7.30 to 8.30

## CCc1c(N2CCN(C(=O)c3c(OC)ncc(C4CC4)c3O)CC2)c(=O)c2nn(-c3ccnc(OC)c3)nc2n1CC(=O)NC12CC(C(C)C)(C1)C2 [I-83, 2-{6-[4-(5-cyclopropyl-4-hydroxy-2-methoxypyridine-3-carbonyl)piperazin-1-yl]-5-ethyl-2-(2-methoxypyridin-4-yl)-7-oxo-2H,4H,7H-[1,2,3]triazolo[4,5-b]pyridin-4-yl}-N-[3-(propan-2-yl)bicyclo[1.1.1]pentan-1-yl]acetamide]
[1]; Homo sapiens, HCT-116, 24 h
  pEC50: ≥ 6.30

## CCc1c(N2CCN(C(=O)c3ncnc(C)c3O)[C@H]3CC[C@@H]32)c(=O)c2nn(C3=CCOCC3)nc2n1CC(=O)NC1CC2(CCC2)C1 [I-185, 2-[2-(3,6-dihydro-2H-pyran-4-yl)-5-ethyl-6-[(1S,6S)-5-(5-hydroxy-6-methylpyrimidine-4-carbonyl)-2,5-diazabicyclo[4.2.0]octan-2-yl]-7-oxo-2H,4H,7H-[1,2,3]triazolo[4,5-b]pyridin-4-yl]-N-{spiro[3.3]heptan-2-yl}acetamide]
[2]
  pIC50: 7.30 to 8.30

## CCc1c(N2CCN(C(=O)c3c(COC)cccc3OC)[C@H]3CC[C@@H]32)c(=O)c2nn(C3=CCOCC3)nc2n1CC(=O)NC12CC(C3CC3)(C1)C2 [I-199, N-{3-cyclopropylbicyclo[1.1.1]pentan-1-yl}-2-[2-(3,6-dihydro-2H-pyran-4-yl)-5-ethyl-6-[(1S,6S)-5-[2-methoxy-6-(methoxymethyl)benzoyl]-2,5-diazabicyclo[4.2.0]octan-2-yl]-7-oxo-2H,4H,7H-[1,2,3]triazolo[4,5-b]pyridin-4-yl]acetamide]
[2]
  pIC50: 7.30 to 8.30

From patent US20250206738A1, “WRN INHIBITORS” (Nimbus Wadjet, Inc., priority 2023, published 2025)
